The subject of this test is TEAD transcriptional activity. Put plainly: Inhibition of TEAD-driven transcription (8×GTIIC-luciferase reporter assay). The class given is cell-based. The following applies: 40 μM at 24 hour treatment. The method, then: The compounds were tested for their ability to inhibit TEAD-driven transcription.
8×GTIIC-luciferase plasmid, containing 8 TEAD binding sites (ACATTCCA), was obtained from Addgene (Addgene #34615). MDA-MB-231 cells were transfected with 8×GTIIC-luciferase and stable clone was obtained using neomycin selection. The TEAD transcriptional activity was monitored by assessing the luciferase activity using luciferase assay system (Promega). Each data point represents mean±standard deviation.
In general terms: In a reporter assay the amount or activity of a reporter protein is the signal.
As a reminder, the inhibition is how much of the control response was suppressed. A low value points to a weak effect. In the case of `C=CC(=O)N1CCC[C@@H](Nc2cccc(C(F)(F)F)c2)C1` [Compound I-1, (R)-1-(3-((3-(trifluoromethyl)phenyl)amino)piperidin-1-yl)prop-2-en-1-one], at 40 µM the inhibition was 50%. Next, `O=C(CCl)N1CCC[C@@H](Nc2cccc(C(F)(F)F)c2)C1` [Compound I-2, (R)-2-chloro-1-(3-((3-(trifluoromethyl)phenyl)amino)piperidin-1-yl)ethan-1-one]: 50%; `O=C(CCl)N1CCC(Nc2cccc(C(F)(F)F)c2)C1` (stereo not shown) [Compound I-10, 2-chloro-1-(3-((3-(trifluoromethyl)phenyl)amino)pyrrolidin-1-yl)ethan-1-one]: 90%; `C=CC(=O)N1CCC(Nc2cccc(C(F)(F)F)c2)C1` (stereo not shown) [Compound I-11, 1-(3-((3-(trifluoromethyl)phenyl)amino)pyrrolidin-1-yl)prop-2-en-1-one]: 90%.

With `O=C(CCl)N1CCC[C@H](Nc2cccc(C(F)(F)F)c2)C1` [Compound I-14, (S)-2-chloro-1-(3-((3-(trifluoromethyl)phenyl)amino)piperidin-1-yl)ethan-1-one], testing at 40 µM gave an inhibition of 70%. Turning to `C=CC(=O)N1CCC[C@H](Nc2cccc(C(F)(F)F)c2)C1` [Compound I-15, (S)-1-(3-((3-(trifluoromethyl)phenyl)amino)piperidin-1-yl)prop-2-en-1-one], testing at 40 µM gave an inhibition of 70%. Next, `C#Cc1cc(N[C@@H]2CCCN(C(=O)CCl)C2)cc(C(F)(F)F)c1` [Compound I-18]: 50%; `O=C(CCl)N1CCCC(Nc2cccc(C(F)(F)F)c2)C1` (stereo not shown) [Compound I-19, 2-chloro-1-(3-((3-(trifluoromethyl)phenyl)amino)piperidin-1-yl)ethan-1-one]: 50%; `O=C(CCl)N1CCC[C@@H](Oc2cccc(C(F)(F)F)c2)C1` [Compound I-20, (R)-2-chloro-1-(3-(3-(trifluoromethyl)phenoxy)piperidin-1-yl)ethan-1-one]: 70%. Next, `C=CC(=O)N1CCC[C@@H](Oc2cccc(C(F)(F)F)c2)C1` [Compound I-21]: 70%; `CCC(=O)N1CCC(Nc2cccc(C(F)(F)F)c2)C1` (stereo not shown) [Compound I-27, 1-(3-((3-(trifluoromethyl)phenyl)amino)pyrrolidin-1-yl)propan-1-one]: 70%. As for `O=C(CCl)Nc1ccccc1Nc1cccc(C(F)(F)F)c1` [Compound I-31, 2-chloro-N-(2-((3-(trifluoromethyl)phenyl)amino)phenyl)acetamide], the inhibition at 40 µM amounted to 90%. Next, `O=C(CCl)N1CC(c2cccc(C(F)(F)F)c2)c2ccccc21` (stereo not shown) [Compound I-35, 2-chloro-1-(3-(3-(trifluoromethyl)phenyl)indolin-1-yl)ethan-1-one]: 70%; `CN(C)C/C=C/C(=O)N1CC[C@H](Nc2cccc(C(F)(F)F)c2)C1` [Compound I-47, (S,E)-4-(dimethylamino)-1-(3-((3-(trifluoromethyl)phenyl)amino)pyrrolidin-1-yl)but-2-en-1-one]: 50%; `C=CC(=O)N1CC[C@H](N(C)c2cccc(C(F)(F)F)c2)C1` [Compound I-48, (S)-1-(3-(methyl(3-(trifluoromethyl)phenyl)amino)pyrrolidin-1-yl)prop-2-en-1-one]: 50%. Next, `C=CC(=O)N1CC[C@H](Nc2cccc(N3CCN(C)CC3)c2)C1` [Compound I-49, (S)-1-(3-((3-(4-methylpiperazin-1-yl)phenyl)amino)pyrrolidin-1-yl)prop-2-en-1-one]: 50%.

In the case of `C=CC(=O)N1CC[C@H](Nc2cc(C(F)(F)F)cc(C(F)(F)F)c2)C1` [Compound I-50, (S)-1-(3-((3,5-bis(trifluoromethyl)phenyl)amino)pyrrolidin-1-yl)prop-2-en-1-one], the inhibition at 40 µM was found to be 90%.

`C=CC(=O)N1CC[C@H](Nc2cc(C(F)(F)F)ccc2Cl)C1` [Compound I-51, (S)-1-(3-((2-chloro-5-(trifluoromethyl)phenyl)amino)pyrrolidin-1-yl)prop-2-en-1-one] yielded an inhibition at 40 µM of 90%.

On to `C=CC(=O)N1CC[C@H](Nc2cc(Cl)cc(C(F)(F)F)c2)C1` [Compound I-52, (S)-1-(3-((3-chloro-5-(trifluoromethyl)phenyl)amino)pyrrolidin-1-yl)prop-2-en-1-one], for which the inhibition at 40 µM came to 70%. Turning to `C=CC(=O)N1CC[C@H](Nc2cc(C(F)(F)F)ccc2OC)C1` [Compound I-56, (S)-1-(3-((2-methoxy-5-(trifluoromethyl)phenyl)amino)pyrrolidin-1-yl)prop-2-en-1-one], testing at 40 µM gave an inhibition of 50%. The molecule `C=CC(=O)N1CC[C@H](Nc2cccc(C(F)(F)F)c2C)C1` [Compound I-57, (S)-1-(3-((2-methyl-3-(trifluoromethyl)phenyl)amino)pyrrolidin-1-yl)prop-2-en-1-one] returned an inhibition at 40 µM of 70%.

Consider `C=CC(=O)N1CC[C@H](Oc2cccc(C(F)(F)F)c2)C1` [Compound I-58, (S)-1-(3-(3-(trifluoromethyl)phenoxy)pyrrolidin-1-yl)prop-2-en-1-one], for which the inhibition at 40 µM amounted to 70%.

With `C=CC(=O)N1CC[C@H](Nc2cncc(C(F)(F)F)c2)C1` [Compound I-61, (S)-1-(3-((5-(trifluoromethyl)pyridin-3-yl)amino)pyrrolidin-1-yl)prop-2-en-1-one], the inhibition at 40 µM amounted to 50%. As for `C=CC(=O)N1C[C@@H](O)[C@H](Nc2cccc(C(F)(F)F)c2)C1` [Compound I-62, 1-((3R,4R)-3-hydroxy-4-((3-(trifluoromethyl)phenyl)amino)pyrrolidin-1-yl)prop-2-en-1-one], 40 µM produced 70% inhibition. For the molecule `C=CC(=O)N1CC[C@H](Nc2cccc(C(F)(F)F)c2N)C1` [Compound I-65, (S)-1-(3-((2-amino-3-(trifluoromethyl)phenyl)amino)pyrrolidin-1-yl)prop-2-en-1-one], testing at 40 µM gave an inhibition of 90%.

These data come from patent US20220402869A1, “TRANSCRIPTIONAL ENHANCED ASSOCIATE DOMAIN (TEAD) TRANSCRIPTION FACTOR INHIBITORS AND USES THEREOF” (Dana-Farber Cancer Institute, Inc., priority 2018, published 2022).
